Measured values published in patent US9278936B2, “Crystalline forms of 1-(3-tert-butyl-1-p-tolyl-1H-pyrazol-5-yl)-3-(5-fluoro-2-(1-(2-hydroxyethyl)-1H-indazol-5-yloxy)benzyl)urea hydrochloride” (Array BioPharma Inc., priority 2012, dated 2016).

Assays:
[1] = test system: p38 MAPK; conditions: cited from earlier work
[2] = Aqueous solubility / BCS class; assay type: physicochemical
[3] = biological target: Tie2 protein kinase (Homo sapiens, UniProt Q02763); conditions: cited from earlier work
[4] = Pharmacokinetics, relative bioavailability and food effect in healthy subjects following single oral doses; assay type: in vivo, human; conditions: by 48 hours after dosing
Description: Formulations 1 and 2 as well as the control are summarized below.
This study design encompassed 3 parallel treatment cohorts of unique subjects evaluating the two formulations (12 subjects per cohort) and the PIC control (6 subjects) in a fasted or fed state, as shown in Table 12. A crossover food-effect assessment for the two formulations occurred with Groups 1 and 2 within Periods 1 and 2.
For each period, subjects were divided into 2 groups of equal size to evaluate any potential period effects on the food-effect assessment. Subjects fasted for a minimum of 8 hours the night before and 4 hours following dosing for the fasted assessment. Subjects consumed a slightly modified standard high-fat meal 30 minutes before and fasted for 4 hours after dosing for the fed portion of the food-effect assessment. Following a 7-day washout after the initial dose, subjects being dosed with the novel formulations returned to the clinic for the Period 2 single dose in the fasted state or following the consumption of a high-fat meal, as appropriate. Within each cohort and period, all subjects were treated on the same day. The same subjects were utilized for Cohort 1—Periods 1 and 2, and likewise for Cohort 2—Periods 1 and 2.
Both days were considered single dose for analysis purposes. Pharmacokinetic parameters calculated included the following: […]

Tie2 protein kinase, sequence (Q02763 23-1124): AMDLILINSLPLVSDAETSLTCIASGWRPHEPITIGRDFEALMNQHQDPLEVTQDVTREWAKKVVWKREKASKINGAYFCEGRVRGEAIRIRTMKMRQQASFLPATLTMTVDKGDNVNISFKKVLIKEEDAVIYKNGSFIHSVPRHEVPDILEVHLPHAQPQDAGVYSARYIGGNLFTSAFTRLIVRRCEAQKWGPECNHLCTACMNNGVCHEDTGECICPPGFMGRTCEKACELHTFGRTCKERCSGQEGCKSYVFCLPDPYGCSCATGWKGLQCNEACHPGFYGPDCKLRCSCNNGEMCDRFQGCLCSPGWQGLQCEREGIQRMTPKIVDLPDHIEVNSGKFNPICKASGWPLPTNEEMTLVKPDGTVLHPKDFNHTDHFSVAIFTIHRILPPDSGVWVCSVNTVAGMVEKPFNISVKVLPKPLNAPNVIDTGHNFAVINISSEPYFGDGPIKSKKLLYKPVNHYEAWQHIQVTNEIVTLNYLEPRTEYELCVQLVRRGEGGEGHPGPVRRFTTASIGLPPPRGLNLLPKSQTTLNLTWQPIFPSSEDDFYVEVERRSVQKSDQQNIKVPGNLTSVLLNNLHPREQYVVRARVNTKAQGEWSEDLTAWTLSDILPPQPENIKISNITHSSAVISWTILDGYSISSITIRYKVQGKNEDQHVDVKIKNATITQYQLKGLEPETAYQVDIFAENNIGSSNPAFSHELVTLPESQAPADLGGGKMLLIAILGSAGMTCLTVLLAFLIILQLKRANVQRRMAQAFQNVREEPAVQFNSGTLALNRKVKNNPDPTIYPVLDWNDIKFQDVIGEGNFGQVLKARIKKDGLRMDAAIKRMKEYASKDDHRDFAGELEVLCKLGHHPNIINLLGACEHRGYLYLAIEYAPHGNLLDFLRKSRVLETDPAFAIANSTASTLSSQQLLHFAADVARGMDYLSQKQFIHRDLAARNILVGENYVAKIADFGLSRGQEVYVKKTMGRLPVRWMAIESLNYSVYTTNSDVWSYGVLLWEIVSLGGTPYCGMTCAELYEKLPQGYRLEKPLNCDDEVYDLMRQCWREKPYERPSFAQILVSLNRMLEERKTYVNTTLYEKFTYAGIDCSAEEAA

BCS class [2]: Class II
solubility ([2]; aqueous media, aqueous buffer, across the typical physiological pH range of 2-8): < 10 µg/mL
mean plasma concentrations relative to the mean peak plasma concentrations [4]: less than 10%
SMILES: Cc1ccc(-n2nc(C(C)(C)C)cc2NC(=O)NCc2cc(F)ccc2Oc2ccc3c(cnn3CCO)c2)cc1 [ARRY-614, 1-(3-Tert-butyl-1-p-tolyl-1H-pyrazol-5-yl)-3-(5-fluoro-2-(1-(2-hydroxyethyl)-1H-indazol-5-yloxy)benzyl)urea]
inhibitory activity against p38 MAPK [1]: potent inhibitory activity
inhibitory activity against Tie2 protein kinase [3]: potent inhibitory activity
